We go through 31 molecules from ChEMBL document CHEMBL4619753, “Treating Cancer by Spindle Assembly Checkpoint Abrogation: Discovery of Two Clinical Candidates, BAY 1161909 and BAY 1217389, Targeting MPS1 Kinase” (J Med Chem, 2020).

Each structure is given as a SMILES string.

A short description of data set [1]: Dose normalized AUC in Wistar rat at 0.2 to 1 mg/kg, po measured up to 24 hrs by HPLC-MS-MS analysis. To be noted: in vivo. The class given is ADME, organism-based.
Another data set deals with HeLa. Kind of data set: cells. To be noted: Homo sapiens, 96 h.
Data set [2] can be described thus: Oral bioavailability in Wistar rat at 0.2 to 1 mg/kg measured up to 24 hrs by HPLC-MS-MS analysis. The class given is ADME, organism-based. To be noted: in vivo.
Data set [3] in a line: Half life in Wistar rat at 0.1 to 0.5 mg/kg, iv administered as bolus dose measured up to 24 hrs by HPLC-MS-MS analysis. The class given is ADME, organism-based. Conditions: in vivo; for half-life: Wistar.
A short description of data set [4]: Oral bioavailability in Beagle dog at 0.2 to 1 mg/kg measured up to 24 hrs by HPLC-MS-MS analysis. The class given is ADME, organism-based, Canis lupus familiaris. Conditions: in vivo.
Data set [5] can be described thus: Dose normalized AUC in Beagle dog at 0.2 to 1 mg/kg, po measured up to 24 hrs by HPLC-MS-MS analysis. The class given is ADME, organism-based, Canis lupus familiaris. Conditions: in vivo.
Data set [6] in a line: Blood clearance in Beagle dog at 0.1 to 0.5 mg/kg administered as iv infusion measured up to 24 hrs by HPLC-MS-MS analysis. The class given is ADME, organism-based, Canis lupus familiaris.
Data set [7] in a line: Blood clearance in Wistar rat at 0.1 to 0.5 mg/kg, iv administered as bolus dose measured up to 24 hrs by HPLC-MS-MS analysis. The class given is ADME, organism-based.
Data set [8] in a line: Volume of distribution at steady state in Wistar rat at 0.1 to 0.5 mg/kg, iv administered as bolus dose measured up to 24 hrs by HPLC-MS-MS analysis. The class given is ADME, organism-based. Conditions: in vivo; for Vd: Wistar, read-out: Vdss.
Data set [9] in a line: Half life in Beagle dog at 0.1 to 0.5 mg/kg, administered as iv infusion measured up to 24 hrs by HPLC-MS-MS analysis. The class given is ADME, organism-based, Canis lupus familiaris. Conditions: in vivo.
A short description of data set [10]: Volume of distribution at steady state in Beagle dog at 0.1 to 0.5 mg/kg administered as iv infusion measured up to 24 hrs by HPLC-MS-MS analysis. The class given is ADME, organism-based, Canis lupus familiaris. To be noted: in vivo, read-out: Vdss.
Data set [11] can be described thus: Aqueous solubility of the compound. The class given is physicochemical. To be noted: buffer.
A short description of data set [12]: Lipophilicity, LogD of compound at pH 7.5 by reverse phase HPLC analysis. The class given is physicochemical. Conditions: buffer.
A further data set has as its system HT-29. Put plainly: cells. Conditions: Homo sapiens, HT-29, 96 h.

Description for HT-29: Antiproliferative activity against human HT-29 cells after 96 hrs by crystal violet staining based assay
Description for HeLa: Antiproliferative activity against human HeLa cells after 96 hrs by crystal violet staining based assay

Consider `CC(C)CNc1nccn2c(-c3ccc(C(=O)NC4CC4)cc3)cnc12`, for which the AUC/dose entry in data set [1] (BLD = below limit of detection) is given as “Bld”.
As to `CC(C)CNc1cc(-c2ccccc2)cc2c1ncn2-c1ccc(C(=O)NC2CC2)cc1`, in the data set with HeLa, the IC50 was determined as 2480 nM.
The same measure, in the same setting: the figure for `CC(C)CNc1cccc2c1ncn2-c1ccc(C(=O)NC2CC2)cc1` is more than 10000 nM.
In data set [1], `N#Cc1ccccc1Nc1nc2ccc(-c3ccc(NC(=O)Cc4ccccc4)cc3)cn2n1` registered an AUC/dose of 0.084 kg·h/L. In [2], this molecule came in with a bioavailability of 12%. In the data set on HeLa, this molecule yielded an IC50 of 695 nM.
In the case of `C=C(c1ccc(OC)c(F)c1)c1cc(NCCC(F)(F)F)c2ncc(-c3ccc(C(=O)NC4CC4)c(C)c3)n2n1`, the half-life in [3] is 186 min; in data set [9], 50.4 min. The results for the bioavailability in data set [4] and in [2] were 1.4% and 33%, respectively. The AUC/dose in data set [1] is 0.47 kg·h/L; in data set [5], 0.005 kg·h/L. Also, the values for the clearance in data set [6] and in [7] were 56.7 mL/min/kg and 14.5 mL/min/kg, respectively. Moreover, the Vd in data set [8] came to 2.1 L/kg; in data set [10], 2.6 L/kg.
In the case of `COc1cc(S(C)(=O)=O)ccc1Nc1nc2ccc(-c3ccc(NC(=O)Cc4ccc(F)cc4)cc3)cn2n1`, the AUC/dose in data set [1] worked out at 0.98 kg·h/L. The same molecule yielded a bioavailability in [2] of 49%. For the same molecule, the IC50 in the data set on HeLa is 246 nM.
Regarding `COc1cc(C(=O)N2CC3(COC3)C2)ccc1Nc1nc2ccc(-c3ccc(NC(=O)Cc4ccc(F)cc4)cc3)cn2n1`, the AUC/dose in [1] was 0.049 kg·h/L. Besides, the IC50 with HeLa is 85 nM.
In the case of `COc1cc(S(C)(=O)=O)ccc1Nc1nc2ccc(-c3ccc(NC(=O)[C@@H](C)c4ccc(F)cc4)cc3)cn2n1`, the midpoint of inhibition in the data set with HeLa, the IC50, lay at 7000 nM.
On to `CC(C)CNc1nc(-c2ccccc2)nn2c(-c3ccc(C(=O)NC4CC4)cc3)cnc12`, for which the IC50 with HeLa is more than 10000 nM.
Take `Cc1cc(-c2cnc3c(NCCC(F)(F)F)cc(C4(c5cc(F)ccc5O)CC4)nn23)ccc1C(=O)NC1CC1`: the half-life is 282 min in data set [3] and 126 min in data set [9]. Further, the bioavailability amounted to 81% in data set [4] and 45% in [2]. The values for the AUC/dose in data set [1] and in [5] were 0.76 kg·h/L and 1.1 kg·h/L, respectively. In addition, the clearance in data set [6] was 21.7 mL/min/kg; in data set [7] it was 14.2 mL/min/kg. Further, the Vd was found to be 3.1 L/kg in data set [8] and 2.1 L/kg in [10].
On to `CC(C)CNc1cc(-c2ccccc2)nn2c(-c3ccc(C(=O)NC4CC4)cc3)cnc12`, for which the IC50 with HeLa was 1550 nM.
Molecule `N#Cc1ccccc1Nc1nc2ccc(-c3ccc(NC(=O)Cc4ccc(F)cc4)cc3)cn2n1` had an AUC/dose in data set [1] of 0.066 kg·h/L. The same molecule gave a bioavailability in data set [2] of 6.6%. The molecule further showed an IC50 in the data set with HeLa of 266 nM.
In the same order, the values of `COc1cc(C(=O)N2C[C@@H]3C[C@H]2CO3)ccc1Nc1nc2ccc(-c3ccc(NC(=O)Cc4ccc(F)cc4)cc3)cn2n1` are 0.23 kg·h/L, 17% and 50 nM.
The like results for `COc1cc(C(=O)N2CCOCC2)ccc1Nc1nc2ccc(-c3ccc(NC(=O)Cc4ccc(F)cc4)cc3)cn2n1` were, in that order, 0.81 kg·h/L, 20% and 140 nM.
In the data set with HeLa, `CC(C)CNc1nc(-c2ccccc2)cc2c(-c3ccc(C(=O)NC4CC4)cc3)cnn12` displayed an IC50 of 7730 nM.
The same measure, in the same setting: for `O=C(Cc1ccc(F)cc1)Nc1ccc(-c2ccc3nc(Nc4ccc(C(=O)N5CCOCC5)cc4)nn3c2)cc1` the value was 725 nM.
Still for that read-out and setting: the figure for `COc1cc(S(C)(=O)=O)ccc1Nc1nc2ccc(-c3ccc(NC(=O)C4(c5ccc(F)cc5)CC4)cc3)cn2n1` is more than 10000 nM.
In the data set with HeLa, `O=C(Cc1ccc(F)cc1)Nc1ccc(-c2ccc3nc(Nc4ccc(C(=O)N5CCOCC5)cc4OCC(F)(F)F)nn3c2)cc1` yielded an IC50 of 26 nM. Moreover, in [11], the solubility result was “Insoluble”. In data set [12], the chromatographic logD is 3.9.
In turn, `COc1cc(C(=O)N(C)C)ccc1Nc1nc2ccc(-c3ccc(NC(=O)Cc4ccc(F)cc4)cc3)cn2n1` came in with an IC50 in the data set with HeLa of 200 nM. That is a sub-micromolar value.
`CNC(=O)Nc1ccc(-c2cnc3c(NCC(C)C)nccn23)cc1` displayed an AUC/dose in data set [1] of 4.9 kg·h/L. This molecule registered a bioavailability in data set [2] of 94%.
Take `COc1ccccc1Nc1nc2ccc(-c3ccc(NC(=O)Cc4ccccc4)cc3)cn2n1`: the AUC/dose in data set [1] worked out at 0.066 kg·h/L. In [2], this molecule showed a bioavailability of 9%. This molecule also gave an IC50 in the data set with HeLa of 2300 nM.
The like results for `COc1cc(N2CCOC2=O)ccc1Nc1nc2ccc(-c3ccc(NC(=O)Cc4ccc(F)cc4)cc3)cn2n1` were, in that order, 1.9 kg·h/L, 52% and 120 nM.
As for `COc1cc(C(=O)N2CC(F)C2)ccc1Nc1nc2ccc(-c3ccc(NC(=O)[C@H](C)c4ccc(F)cc4)cc3)cn2n1`, the figures for the half-life in data set [3] and in [9] were 318 min and 420 min, respectively. In addition, the bioavailability in data set [4] stood at 39%; in data set [2] it was 55%. The figures for the AUC/dose in data set [1] and in data set [5] were 1.8 kg·h/L and 0.64 kg·h/L, respectively. For the same molecule, the clearance in data set [6] is 9.83 mL/min/kg; in data set [7], 5.17 mL/min/kg. Further, in the data set on HeLa, half-maximal inhibition (IC50) was put at 57 nM. The Vd in data set [8] came to 2.1 L/kg; in [10], 5.2 L/kg.
In turn, `COc1ccccc1Nc1nc2ccc(-c3cc(C)c(O)c(C)c3)cn2n1` gave an IC50 in the data set with HeLa of 5900 nM.
Molecule `COc1cc(C(=O)N2CC(F)C2)ccc1Nc1nc2ccc(-c3ccc(NC(=O)Cc4ccc(F)cc4)cc3)cn2n1` gave an IC50 in the data set with HeLa of 37 nM.
In turn, `COc1cc(N2CCOC2=O)ccc1Nc1nc2ccc(-c3ccc(NC(=O)[C@H](C)c4ccc(F)cc4)cc3)cn2n1` yielded a t1/2 in data set [3] (24 h) of 8 h. The molecule also displayed an AUC/dose in [1] of 4.2 kg·h/L. Also, the bioavailability in data set [2] came out at 49%. The molecule also registered an IC50 in the data set with HeLa of 270 nM. The Vdss in data set [8] (24 h) was 1.4 L/kg.
Turning to `Cc1cc(-c2cnc3c(NCC(C)C)nccn23)ccc1C(=O)NC1CC1`, the AUC/dose in data set [1] was determined as 0.22 kg·h/L. This molecule had a bioavailability in [2] of 20%.
In turn, `CCC(C(=O)Nc1ccc(-c2ccc3nc(Nc4ccc(S(C)(=O)=O)cc4OC)nn3c2)cc1)c1ccc(F)cc1` (racemic) gave an IC50 in the data set with HeLa of 7500 nM.
`COc1cc(S(C)(=O)=O)ccc1Nc1nc2ccc(-c3ccc(NC(=O)[C@H](C)c4ccc(F)cc4)cc3)cn2n1` [BAY-1161909]: the half-life is 840 min in [3] and 378 min in [9]. Moreover, the bioavailability in data set [4] is 63%; in data set [2], 49%. Moreover, the AUC/dose in data set [1] worked out at 3.3 kg·h/L; in [5], 0.52 kg·h/L. Further, the values for the clearance in data set [6] and in data set [7] were 23.3 mL/min/kg and 3.17 mL/min/kg, respectively. The IC50 with HeLa is 260 nM. Besides, the Vd is 2.4 L/kg in data set [8] and 6.7 L/kg in data set [10].
For `COc1ccc(Oc2cc(NCCC(F)(F)F)c3ncc(-c4ccc(C(=O)NC5CC5)c(C)c4)n3n2)c(F)c1F` [BAY-1217389], the half-life in data set [3] is 468 min; in data set [9], 780 min. In addition, the bioavailability in data set [4] was found to be 71%; in data set [2], 72%. In addition, the AUC/dose came to 2.4 kg·h/L in [1] and 2.5 kg·h/L in [5]. For the same molecule, the Vd was 2.2 L/kg in data set [8] and 3.9 L/kg in data set [10].
In turn, `Cc1cc(-c2cnn3c(NC[C@H]4C[C@@](C)(O)C4)cc(Oc4cccnc4)nc23)ccc1C(=O)NC1CC1` [LUVIXASERTIB] came in with an IC50 with HT-29 of 557 nM.

A word on the IC50: it is the midpoint of a concentration-inhibition curve. A higher IC50 goes with lower potency. A word on the bioavailability: it is the share of a dose that reaches the circulation, judged against a reference dose that is usually intravenous. Read a low bioavailability as poor availability. For orientation: half-life means the time needed for the level to fall by half in the phase considered. Read a low half-life as fast loss. The term clearance denotes a measure of how efficiently the substance is removed, as volume per time. A higher clearance goes with efficient removal. A word on the chromatographic logD: it is lipophilicity estimated from chromatographic retention. The low end stands for lower lipophilicity, the high end for higher lipophilicity. In general, Vdss refers to the apparent volume that relates the amount in the body to the concentration in plasma or blood.
